Assay results as given in ChEMBL document CHEMBL3045709, “Increasing resistance against Phytophthora citrophthora in tangelo Nova fruits by modulating polymethoxyflavones levels” (J Agric Food Chem, 2002).
The source made the active and inactive calls. The calls are words filed in the database; no cut-off is given here.

Tests used:
[1] = system: Phytophthora citrophthora; assay: Antifungal activity against Phytophthora citrophthora assessed as inhibition of radical growth at 0.1 to 1 g/L up to 200 hr; format: functional, organism-based
[2] = system: Citrus; assay: Induction of resistance against Phytophthora citrophthora in Citrus (tangelo Nova) fruits assessed as increase of polymethoxyflavones levels at 20 to 250 ppm after 7 days; format: functional
[3] = system: Citrus; assay: Induction of resistance against Phytophthora citrophthora in Citrus (tangelo Nova) fruits assessed as increase of polymethoxyflavones levels at 20 to 250 ppm up to 160 days; format: functional
[4] = system: Phytophthora citrophthora; assay: Antifungal activity against Phytophthora citrophthora after 100 hr; format: functional, organism-based
[5] = system: Phytophthora citrophthora; assay: Antifungal activity against Phytophthora citrophthora assessed as inhibition of radical growth at 0.05 to 0.4 g/L up to 200 hr; format: functional, organism-based
[6] = system: Phytophthora citrophthora; assay: Antifungal activity against Phytophthora citrophthora assessed as inhibition of radical growth at 0.2 to 0.6 g/L up to 200 hr; format: functional, organism-based
[7] = system: Penicillium digitatum; assay: Antifungal activity against Penicillium digitatum; format: functional, organism-based
[8] = system: Phytophthora citrophthora; assay: Antifungal activity against Phytophthora citrophthora in tangelo Nova fruits assessed as inhibition of fungal growth at 100 ppm after 3 to 5 days; format: functional; settings: read-out: GI

Row | SMILES | IC50 [4] [µM] | IC50 [7] [µM] | growth inhibition (GI) [1] | Activity [2] [%] | Activity [3] | growth inhibition (GI) [5] | growth inhibition (GI) [6] | inhibition of growth at 100 ppm [8] [%]
1 | COc1ccc(-c2oc3c(OC)c(OC)c(OC)c(OC)c3c(=O)c2OC)cc1OC [3,5,6,7,8,3',4'-HEPTAMETHOXYFLAVONE] | 1040 |  | Active | 29 | 43% |  |  | 
2 | COc1ccc(-c2cc(=O)c3c(OC)c(OC)c(OC)c(OC)c3o2)cc1 [TANGERETIN] | 1720 | 6450 | Active | 12 | Active |  |  | 
3 | c1ccc(CNc2ncnc3[nH]cnc23)cc1 [6-BENZYLAMINOPURINE] |  |  |  |  |  |  |  | 60

More lines, in order of falling IC50 [4], values ahead:

Row | IC50 [4] [µM] | IC50 [7] [µM] | SMILES | growth inhibition (GI) [1] | Activity [2] [%] | Activity [3] | growth inhibition (GI) [5] | growth inhibition (GI) [6] | inhibition of growth at 100 ppm [8] [%]
4 | 910 |  | COc1ccc(-c2cc(=O)c3c(OC)c(OC)c(OC)cc3o2)cc1OC [SINENSETIN] |  | 20 | Active |  | Active | 
5 | 590 |  | COc1ccc(-c2cc(=O)c3c(OC)c(OC)c(OC)c(OC)c3o2)cc1OC [NOBILETIN] |  | 20 | Active | Active |  | 
